Earlier results, collected in PMC13584777, “Synthesis, Conformational Analysis, and Evaluation of 6R- and 6S‑Methylmannoimidazoles as Mannosidase Inhibitors” (ACS Omega, 2026).

Target: T1, BtMan2A (Bacteroides thetaiotaomicron, UniProt Q8AAK6)
T1 construct: purchased NZYTech CZ0810
Details: Figure 3, authors' earlier study of the 1-deoxymannojirimycin series

T1 sequence (Q8AAK6 entry or part of it, change not shown): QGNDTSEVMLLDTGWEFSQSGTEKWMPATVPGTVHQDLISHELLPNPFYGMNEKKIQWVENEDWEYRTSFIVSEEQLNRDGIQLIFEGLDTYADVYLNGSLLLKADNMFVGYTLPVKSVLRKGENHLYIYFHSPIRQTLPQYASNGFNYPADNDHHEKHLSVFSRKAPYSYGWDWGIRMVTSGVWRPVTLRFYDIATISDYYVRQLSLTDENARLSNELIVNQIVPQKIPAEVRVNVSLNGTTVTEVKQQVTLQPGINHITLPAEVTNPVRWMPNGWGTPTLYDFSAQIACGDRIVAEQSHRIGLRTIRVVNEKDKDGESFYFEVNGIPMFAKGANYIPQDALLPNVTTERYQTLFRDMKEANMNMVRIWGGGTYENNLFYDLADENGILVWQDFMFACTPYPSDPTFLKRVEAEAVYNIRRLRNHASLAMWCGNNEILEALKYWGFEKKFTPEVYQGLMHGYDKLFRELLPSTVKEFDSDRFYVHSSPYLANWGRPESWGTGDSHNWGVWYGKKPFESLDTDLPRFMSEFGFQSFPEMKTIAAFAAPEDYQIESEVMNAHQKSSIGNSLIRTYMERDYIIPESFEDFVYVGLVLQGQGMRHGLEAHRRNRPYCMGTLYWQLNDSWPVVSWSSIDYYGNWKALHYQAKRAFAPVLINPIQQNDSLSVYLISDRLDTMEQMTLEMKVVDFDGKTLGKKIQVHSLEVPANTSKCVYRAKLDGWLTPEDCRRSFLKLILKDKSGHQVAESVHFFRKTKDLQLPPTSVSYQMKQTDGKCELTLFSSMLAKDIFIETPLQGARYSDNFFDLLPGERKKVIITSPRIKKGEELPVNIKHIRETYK

Row | Compound | Ki [mM]
1 | C[C@@H](O)[C@H]1NC[C@@H](O)[C@@H](O)[C@@H]1O [compound 1, 6R-methyl-1-deoxymannojirimycin] | 14 ± 1
2 | C[C@H](O)[C@H]1NC[C@@H](O)[C@@H](O)[C@@H]1O [compound 2, 6S-methyl-1-deoxymannojirimycin] | 1.4 ± 0.2
